Measurements: patent US7863415B2 (The Regents of the University of California, priority 2004, dated 2011)
“Also recorded” adds a separate entry of the source. Read-outs that look alike come from different tables or passages of the source.

Experiments:
U87 glioma cells [1] = test system: U87 glioma cells
U87 glioma cells [2] = conditions: Hegde et al. 2004; cited from earlier work
NHE1 [3] = target: T1, NHE1 (Homo sapiens, UniProt P19634); design: host or cells: CHO cell lines; conditions: CHO cell lines, published values; read-out: IC50 of cariporide (NHE); cited from earlier work
NHE1 [4] = target: T1, NHE1; assay: NHE1 inhibition: sodium-dependent pHi recovery in BCECF-loaded U87 glial cells after ammonium chloride pre-pulse; assay type: cell-based; design: Sodium-dependent proton extrusion in U87 glial cells and in primary astrocytes is mediated by the type 1 sodium proton exchanger (NHE1); endogenous in cells; host or cells: U87 human glioma cells
Description: Intracellular pH Measurements. U87 glial cells were grown on glass coverslips and incubated for 30 minutes at 37° C. with the pH-sensitive dye, 2′,7′-bis(2-carboxyethyl)-5(6)-carboxyfluorescein-AM (BCECF-AM; Molecular Probes, OR). Cells were rinsed with HEPES Ringer buffer twice and maintained at 37° C. for an additional 15 minutes to permit intracellular hydrolysis of the AM ester; trapping BCECF within the cells. Cells on coverslips were placed in a Hitachi F2000 fluorescent spectrophotometer and excited at 440 and 507 nm with fluorescent emissions recorded at 535 nm (Hegde et al., J. Pharmacol. Exp. Ther., 310:67-74 (2004)).
NHE inhibition by compounds 3a and 3c was evaluated using intracellular pH (pHi) measurements in the U87 human glial cell line (Hegde et al., supra). Cells loaded with BCECF were then acidified using the ammonium chloride pre-pulse method (Roos et al., Physiol Rev, 61:296-434 (1981)). The subsequent sodium-dependent recovery of pHi by these cells in the absence of bicarbonate was monitored using a spectrofluorometer. Sodium-dependent proton extrusion in U87 glial cells and in primary astrocytes is mediated by the type 1 sodium proton exchanger (NHE1) (McLean et al., supra; Hegde et al., supra) and was monitored in the presence or absence of compound 3a or 3c.
IC50 drug determinations for NHE1. This method utilizes spectrofluorometric measurements of [H^+]i as described above. The ammonium chloride prepulse method can be used to acidify cells in the presence of HR that is sodium-substituted with NMDG. Perfusion of the acidified cells with HR that contains sodium causes activation of NHE1 that is inhibited in a concentration-dependent fashion as described in McLean et al., supra.

U87 glioma cells [5] = assay: Glioma cell proliferation, manual cell counts with trypan blue; assay type: cell-based, human; conditions: glioma cells
Description: C(5)-amiloride glycine conjugate (C5am-Gly) inhibits NHE1 in U87 glioma cells and is antiproliferative. […] The inhibitory activity of C5am-Gly against NCX was tested and a systematic log dose screen of C5am-Gly against a panel of glioma cells and primary astrocytes was performed.
Manual cell counts with dye exclusion assays. Identical concentrations of glioma cells can be plated on 60 mm dishes and grown until 50% confluent. Following drug treatments, media containing floating cells can be collected in suspension. Adherent cells can be rinsed in calcium- and magnesium-free phosphate-buffered saline (PBS-CMF) and removed by incubation with 0.25% v/v trypsin for 5 minutes (37° C.). Cell suspensions can be combined with the floating fraction and centrifuged at 350×g for 5 minutes. The resulting pellet (one per dish) can be resuspended in equal volumes of PBS-CMF with 0.4% trypan blue and/or 500 nM Sytox Green. 10 μL aliquots of the suspension can be plated on a hemocytometer, and cells can be counted 5 minutes after staining. Simultaneous staining of cells with trypan (TB) and Sytox Green (SG) can be visualized by switching between visible light and fluorescein green.

astrocytes = assay type: cell-based; conditions: amiloride ≧500 μM, 48-72 hours
Source text: Cell culture. The five human glioma cell lines can be obtained from the American Tissue Culture Collection (ATCC). Primary cultures of rat astrocytes can be isolated from the cerebral cortex of neonatal rats (0-1 day old). For measurements of [H^+]i, [Ca^2+]i, and [Na^+]i, cells can be grown on glass coverslips coated with rat tail collagen type I.

[6] = test system: intracerebral U87 glioma xenografts; assay: Intracerebral U87 glioma xenografts in athymic rats, amiloride infusion by Alzet pump, tumor volume by NMR and histology; assay type: in vivo, rat; conditions: for Doubling time, day postimplant 10: before drug infusion (day 12-17); for Doubling time, day postimplant 12 / Doubling time, day postimplant 15 / Doubling time, day postimplant 17: drug infusion day 12-17
Description: U87 glioma cells were stereotaxically implanted into the corpus striatum of brains of athymic (i.e., T-cell deficient) rats and characterized as an in vivo treatment model. Nissl-stained coronal sections were used to calculate tumor volumes from day 4 to day 28 post-implantation. T1-weighted NMR images were acquired from a separate set of animals to serially measure tumor volumes of intracerebral U87 glioma xenografts.
BrdU was injected intraperitoneally 3 h prior to perfusion fixation with paraformaldehyde in deeply anesthetized animals.

U87 cells = assay: Intracellular translocation into U87 cells by fluorescence microscopy; conditions: 50 μM; 90 and 180 min; 380 nm excitation, 510 nm emission
Source text: Fluorescence Microscopy. […] Excitation light was provided by a xenon arc lamp coupled to the Polychrome IV scanning monochromator (Till Photonics; Grafelfing, Germany) that alternately excites with different wavelengths. Excitation light was delivered by fiber optics to cells through the epifluorescence port of a Nikon E600 microscope coupled to a Nikon Fluor 60× water immersion lens. The detector was an Orca II-ER CCD digital camera (Hamamatsu USA; Bridgewater, N.J.), which is controlled by C-Imaging Simple PCI software (Compix; Cranberry Township, Pa.).
Intracellular emission intensities were collected in regions of interest (ROI) from an average of 4-8 cells/field using Simple PCI imaging software. […] Images were captured as TIFF files (C-imaging Simple PCI software), and light and fluorescent images of the same field were imported in Photoshop 6.0 and vector graphics added using Illustrator 9.0.1 (Adobe; San Jose, Calif.).

NHE1 [7] = target: T2, NHE1 (Rattus norvegicus, UniProt P26431); conditions: read-out: IC50 of amiloride (NHE); primary rat astrocytes; cited from earlier work
T2 construct: in primary rat astrocytes (6 μM) (McLean et al., supra); host or cells: primary rat astrocytes

NCX = conditions: read-out: IC50 for NCX inhibition; cited from earlier work
NHE1 and NCX = NHE1 and NCX inhibitors from the literature; cited from earlier work
U87 glioma cells [8] = assay: Glioma cell death, manual cell counts with trypan blue exclusion
[9] = Neuropathological and neurobehavioral effects of intracerebral/intrathecal amiloride infusion in rats
Description: Rats were subjected to a “probe” trial following the last acquisition trial in MWM assessment following tumor and drug administration. The hidden platform was removed and the rat was allowed to swim for 60 seconds. The duration of time spent in the “target” quadrant (formerly containing the platform) was recorded.

U87 [10] = conditions: cited from earlier work
T98G [11] = conditions: cited from earlier work
A172 = conditions: cited from earlier work
U87 [12] = conditions: cited from earlier work; remark: listed apart in the source
T98G [13] = conditions: cited from earlier work; remark: listed apart in the source
U373 = conditions: cited from earlier work
[14] = intracerebral amiloride infusion
[15] = intrathecal infusion, tumor-implanted rats

T1 sequence (P19634 whole entry): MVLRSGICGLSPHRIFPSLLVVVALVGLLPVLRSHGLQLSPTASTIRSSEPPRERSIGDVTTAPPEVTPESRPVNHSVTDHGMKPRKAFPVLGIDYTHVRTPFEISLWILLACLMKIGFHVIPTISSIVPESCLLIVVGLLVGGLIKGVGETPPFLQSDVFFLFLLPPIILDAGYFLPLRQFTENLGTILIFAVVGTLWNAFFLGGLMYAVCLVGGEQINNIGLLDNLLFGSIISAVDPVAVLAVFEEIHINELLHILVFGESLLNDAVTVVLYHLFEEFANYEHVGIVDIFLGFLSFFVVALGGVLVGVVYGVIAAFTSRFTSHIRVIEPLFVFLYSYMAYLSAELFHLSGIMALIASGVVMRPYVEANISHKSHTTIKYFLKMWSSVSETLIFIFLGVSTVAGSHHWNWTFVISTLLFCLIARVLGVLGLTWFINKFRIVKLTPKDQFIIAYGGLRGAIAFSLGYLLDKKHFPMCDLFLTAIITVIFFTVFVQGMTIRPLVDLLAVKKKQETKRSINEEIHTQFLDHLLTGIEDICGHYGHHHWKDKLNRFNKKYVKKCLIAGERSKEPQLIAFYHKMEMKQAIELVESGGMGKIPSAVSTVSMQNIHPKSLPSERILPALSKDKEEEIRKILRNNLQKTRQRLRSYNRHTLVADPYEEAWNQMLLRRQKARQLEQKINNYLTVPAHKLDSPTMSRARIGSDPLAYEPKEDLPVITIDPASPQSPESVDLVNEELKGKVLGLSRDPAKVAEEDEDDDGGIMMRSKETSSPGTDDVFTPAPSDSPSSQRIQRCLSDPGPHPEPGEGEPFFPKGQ
T2 sequence (P26431 whole entry): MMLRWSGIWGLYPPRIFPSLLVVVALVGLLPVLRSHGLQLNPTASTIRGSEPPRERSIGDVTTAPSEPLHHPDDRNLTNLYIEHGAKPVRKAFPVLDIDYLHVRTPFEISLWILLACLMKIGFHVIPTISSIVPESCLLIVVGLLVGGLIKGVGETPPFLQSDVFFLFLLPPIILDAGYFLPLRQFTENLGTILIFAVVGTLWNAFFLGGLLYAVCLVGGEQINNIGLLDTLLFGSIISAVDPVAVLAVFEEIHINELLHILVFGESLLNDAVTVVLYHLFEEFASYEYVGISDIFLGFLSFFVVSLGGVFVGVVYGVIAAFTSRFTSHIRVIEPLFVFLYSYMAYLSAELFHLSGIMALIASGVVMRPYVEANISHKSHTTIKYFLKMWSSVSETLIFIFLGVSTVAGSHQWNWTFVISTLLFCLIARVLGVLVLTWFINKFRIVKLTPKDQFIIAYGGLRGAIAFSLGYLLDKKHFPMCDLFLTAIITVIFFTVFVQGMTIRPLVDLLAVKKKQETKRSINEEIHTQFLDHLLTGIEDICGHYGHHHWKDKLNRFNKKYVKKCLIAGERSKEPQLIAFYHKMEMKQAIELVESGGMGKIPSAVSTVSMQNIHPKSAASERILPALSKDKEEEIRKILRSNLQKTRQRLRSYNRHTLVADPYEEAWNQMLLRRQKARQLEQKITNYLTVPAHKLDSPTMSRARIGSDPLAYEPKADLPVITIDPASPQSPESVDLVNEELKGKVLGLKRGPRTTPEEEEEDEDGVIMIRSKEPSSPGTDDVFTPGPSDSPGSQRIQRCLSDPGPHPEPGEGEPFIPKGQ

For `CC(C)c1ccc(C(=O)NC(=N)N)cc1S(C)(=O)=O` [Cariporide], the “Cytotoxicity to glioma cells” value (U87 glioma cells [1]) is given as “cytotoxic”, the “Killing of glioma cells by selective NHE inhibitor” value (U87 glioma cells [2]) is given as “do not kill glioma cells” and the IC50 (NHE1 [3]) is given as 0.03 µM. For the same compound, the “Relative Potency” value (NHE1 [4]; NHE inhibition relative to amiloride = 1) was 676 and the IC50 (NHE1 [4]; U87 glial cells, read-out: IC50 of cariporide (NHE inhibition)) was 0.074 µM.

With `NC(N)=NC(=O)c1nc(Cl)c(N)nc1N` [Amiloride, 3,5-diamino-6-chloro-N-(diaminomethylene)pyrazinecarboxamide] the “Glioma Effect: antiproliferative concentration” value (U87 glioma cells [5]) was less than 50 µM, the Killing of astrocytes (astrocytes) was “not astrocytes” and the “Doubling time, day postimplant 10” value ([6]; 10 mM amiloride reservoir) was 3.07. The “Doubling time, day postimplant 12” value ([6]; 10 mM amiloride reservoir) was 3.40, the “Doubling time, day postimplant 15” value ([6]; 10 mM amiloride reservoir) was 3.99 and the “Doubling time, day postimplant 17” value ([6]; 10 mM amiloride reservoir) was 4.44. For the same compound, the “Effect on tumor growth rate” value ([6]; 10 mM reservoir, 28 pmol/24 h, 0.14 nmol) was “did not affect”, the “Doubling time, day postimplant 10” value ([6]; 100 mM amiloride reservoir) was 1.23 and the “Doubling time, day postimplant 12” value ([6]; 100 mM amiloride reservoir) was 1.98. The “Doubling time, day postimplant 15” value ([6]; 100 mM amiloride reservoir) was 4.58+, the “Doubling time, day postimplant 17” value ([6]; 100 mM amiloride reservoir) was 11.65++ and the “Increase of tumor doubling time compared to vehicle-treated animals” value ([6]; 100 mM reservoir, 276 pmol/24 h for 5 days, 1.4 nmol total) was 3 fold. For the same compound, the “Effect on normal brain cell types (histology)” value [6, 14] was “unaffected”, the “Glioma cell death in poorly vascularized tumor regions (eosin staining)” value [6, 14] was “necrotic glioma cell death” and the “Effect on tumor growth rates” value ([6]; intracerebral infusion at relatively high doses vs vehicle) was “significantly slowed”. For the same compound, the “Intracellular accumulation in U87 cells” value (U87 cells) was “intracellular accumulation; also recorded: rapid cell permeation”, the “Glioma Effect: cytotoxic concentration” value (U87 glioma cells [1]) was no less than 500 µM and the IC50 (NHE1 [7]) was 6 µM. The IC50 (NCX) was 500 µM, the “Rel. Activity” value (NHE1 and NCX) was “NHE > NCX” and the “Concentration that killed U87 glioma cells” value (U87 glioma cells [8]; U87 glioma cells, C2am-Gly within 24 h) was 500 µM. For the same compound, the “Concentration that killed glioma cells” value (U87 glioma cells [8]; glioma cells, amiloride within 48-72 hours) was no less than 500 µM, the “Neuropathological changes in normal brain cell types” value ([9]; Sprague-Dawley rats, 276 pmol/24 h intracerebral, 12 days) was “not observed; also recorded: no demonstrable neuropathology” and the “Balance and fine motor coordination (beam walk)” value [9, 15] was “did not affect”. For the same compound, the “Memory in a spatial learning task (probe trial)” value [9, 15] was “did not affect” and the “Reversal of NHE1 inhibition after removal of compound” value (NHE1 [4]; U87 cells) was “slow and incomplete recovery; also recorded: prolonged and an incomplete recovery”.

In the case of `CN[C@@H]1C[C@H]2O[C@@](C)([C@@H]1OC)n1c3ccccc3c3c4c(c5c6ccccc6n2c5c31)C(=O)NC4` [staurosporine], the “G1 arrest with staurosporine” value (U87 [10]) is given as “yes”, the “G1 arrest with staurosporine” value (T98G [11]) is given as “yes” and the “G1 arrest with staurosporine” value (A172) is given as “yes”.

In the case of `Cn1nnc2c(C(N)=O)ncn2c1=O` [Temozolamide], the Temozolamide sensitivity (U87 [12]) is given as “yes”, the Temozolamide sensitivity (T98G [13]) is given as “no” and the Temozolamide sensitivity (U373) is given as “yes”.
